Experiment: xn = mol fraction of the nth substance listed

CCOc1ccccc1 + CN1CCCC1=O
viscosity [mPa·s], 101.33 kPa
Settings | x1 = 0.041 | x1 = 0.122 | x1 = 0.201 | x1 = 0.273 | x1 = 0.37 | x1 = 0.504 | x1 = 0.628 | x1 = 0.709 | x1 = 0.822
298 K | 1.667 | 1.648 | 1.622 | 1.594 | 1.551 | 1.481 | 1.408 | 1.36 | 1.285
303 K | 1.541 | 1.518 | 1.49 | 1.461 | 1.418 | 1.353 | 1.286 | 1.242 | 1.175
308 K | 1.432 | 1.406 | 1.377 | 1.348 | 1.307 | 1.244 | 1.183 | 1.141 | 1.08

Nc1cc[nH]c(=O)n1 + O
viscosity [mPa·s], 101.3 kPa
Settings | x1 = 0.000131 | x1 = 0.0001895 | x1 = 0.0002822 | x1 = 0.000457 | x1 = 0.0004889 | x1 = 0.0005591
298.15 K | 0.892 | 0.893 | 0.894 | 0.895 | 0.896 | 0.897
308.15 K | 0.721 | 0.722 | 0.722 | 0.724 | 0.724 | 0.725
318.15 K | 0.598 | 0.598 | 0.599 | 0.601 | 0.601 | 0.602

OCC(O)CO + CCC(C)O
viscosity [mPa·s], 101.33 kPa
Settings | x1 = 0.103 | x1 = 0.2005 | x1 = 0.3005 | x1 = 0.4065 | x1 = 0.5004 | x1 = 0.6005 | x1 = 0.6997 | x1 = 0.7989 | x1 = 0.8998
298.15 K | 4.899 | 8.259 | 14.21 | 26.4 | 50.58 | 96.78 | 190.1 | 327.9 | 521.9
308.15 K | 3.311 | 5.321 | 8.761 | 15.79 | 27.46 | 49.39 | 90.98 | 149.4 | 231.6
318.15 K | 2.387 | 3.648 | 5.727 | 9.681 | 15.6 | 26.39 | 45.42 | 71.57 | 107.4

CCCCCCCCn1cc[n+](C)c1.[Cl-] + CN1CCCC1=O
100 kPa
Settings | viscosity [mPa·s]
293.15 K, x1 = 0.2805 | 26.15
308.15 K, x1 = 0.3657 | 33.55
308.15 K, x1 = 0.4679 | 67.15
318.15 K, x1 = 0.4679 | 43.25

CCCC[n+]1ccc(C)cc1.[Cl][Al-]([Cl])([Cl])[Cl] + Cc1ccccc1
101 kPa, x2 = 0.38
Settings | viscosity [mPa·s]
298.15 K | 13.8
303.15 K | 12.8
308.15 K | 10.8
313.15 K | 9.4
318.15 K | 8.5
323.15 K | 7.6

OCC(O)CO + CN(C)C=O
viscosity [mPa·s], 101 kPa
Settings | x1 = 0.105 | x1 = 0.209 | x1 = 0.312 | x1 = 0.414 | x1 = 0.514 | x1 = 0.613 | x1 = 0.712 | x1 = 0.809 | x1 = 0.905
303.15 K | 1.5 | 2.41 | 4.22 | 7.36 | 14.2 | 19.9 | 64.6 | 127.5 | 258.7
318.15 K | 1.24 | 1.84 | 2.91 | 4.77 | 8.35 | – | 27.3 | 50.5 | 91.1

COc1ccc(C=O)cc1 + COCCO
viscosity [mPa·s], 101 kPa
Settings | x1 = 0.0753 | x1 = 0.1549 | x1 = 0.2391 | x1 = 0.3283 | x1 = 0.4231 | x1 = 0.5238 | x1 = 0.6311 | x1 = 0.7457 | x1 = 0.8684
303.15 K | 1.502 | 1.518 | 1.567 | 1.656 | 1.793 | 1.984 | 2.242 | 2.577 | 3.006
308.15 K | 1.463 | 1.488 | 1.537 | 1.614 | 1.723 | 1.87 | 2.062 | 2.308 | 2.617
313.15 K | 1.214 | 1.258 | 1.32 | 1.404 | 1.513 | 1.651 | 1.824 | 2.037 | 2.298
318.15 K | 1.129 | 1.175 | 1.236 | 1.312 | 1.408 | 1.525 | 1.669 | 1.843 | 2.054

CCOc1ccccc1 + Nc1ccccc1
viscosity [mPa·s], 101 kPa
Settings | x1 = 0.09206 | x1 = 0.1748 | x1 = 0.2667 | x1 = 0.3716 | x1 = 0.4789 | x1 = 0.5934 | x1 = 0.7132 | x1 = 0.8542
293.35 K | 3.64 | 3.17 | 2.75 | 2.39 | 2.1 | 1.84 | 1.63 | 1.428
302.75 K | 2.7 | 2.38 | 2.115 | 1.87 | 1.67 | 1.495 | 1.335 | 1.169
313.15 K | 2.08 | 1.865 | 1.675 | 1.5 | 1.355 | 1.225 | 1.106 | 0.982

COC(=O)CC(C)=O + COC(=O)c1ccccc1
viscosity [mPa·s], 101.33 kPa
Settings | x1 = 0.0981 | x1 = 0.1935 | x1 = 0.2966 | x1 = 0.4001 | x1 = 0.4987 | x1 = 0.5986 | x1 = 0.6984 | x1 = 0.798 | x1 = 0.8977
298.15 K | 1.775 | 1.732 | 1.703 | 1.667 | 1.639 | 1.615 | 1.598 | 1.583 | 1.569
303.15 K | 1.609 | 1.573 | 1.548 | 1.515 | 1.49 | 1.469 | 1.453 | 1.44 | 1.429
308.15 K | 1.467 | 1.435 | 1.413 | 1.382 | 1.362 | 1.343 | 1.329 | 1.316 | 1.306

FC(F)(F)C(F)(F)Cl + CC(F)F
Settings | viscosity [mPa·s]
299.88 K, 101.13 kPa, x1 = 0.69 | 0.1856

OCC(O)CO + CN1CCCC1=O
101 kPa
Settings | viscosity [mPa·s]
298 K, x2 = 0.078 | 418.4
298 K, x2 = 0.16 | 269.4
298 K, x2 = 0.338 | 72.84
298 K, x2 = 0.433 | 38.94
298 K, x2 = 0.534 | 20.42
298 K, x2 = 0.641 | 11.12
298 K, x2 = 0.754 | 4.23
298 K, x2 = 0.873 | 2.44
303 K, x2 = 0.078 | 289.9
303 K, x2 = 0.16 | 160.5
303 K, x2 = 0.336 | 55.93
303 K, x2 = 0.432 | 30.16
303 K, x2 = 0.533 | 17.83
303 K, x2 = 0.64 | 9.48
303 K, x2 = 0.753 | 3.75
303 K, x2 = 0.872 | 2.26
308 K, x2 = 0.077 | 211.3
308 K, x2 = 0.159 | 118.3
308 K, x2 = 0.335 | 43.4
308 K, x2 = 0.43 | 25.79
308 K, x2 = 0.531 | 15.16
308 K, x2 = 0.638 | 7.7
308 K, x2 = 0.751 | 3.27
308 K, x2 = 0.872 | 2.02
313 K, x2 = 0.077 | 143.4
313 K, x2 = 0.158 | 87.14
313 K, x2 = 0.334 | 35.17
313 K, x2 = 0.43 | 20.73
313 K, x2 = 0.53 | 10.45
313 K, x2 = 0.637 | 6.13
313 K, x2 = 0.751 | 2.91
313 K, x2 = 0.871 | 1.88
318 K, x2 = 0.077 | 106.1
318 K, x2 = 0.158 | 54.08
318 K, x2 = 0.334 | 25
318 K, x2 = 0.429 | 16.1
318 K, x2 = 0.53 | 9.03
318 K, x2 = 0.637 | 5.17
318 K, x2 = 0.75 | 2.68
318 K, x2 = 0.871 | 1.72
323 K, x2 = 0.077 | 83.45
323 K, x2 = 0.158 | 50.16
323 K, x2 = 0.334 | 21.33
323 K, x2 = 0.429 | 13.43
323 K, x2 = 0.53 | 7.11
323 K, x2 = 0.637 | 4.64
323 K, x2 = 0.75 | 2.46
323 K, x2 = 0.871 | 1.6

CCCCCC[n+]1ccn(C)c1.O=S(=O)([O-])C(F)(F)F + CC(C)O
Settings | viscosity [mPa·s]
298.15 K, 100 kPa, x2 = 0.1282 | 99.47

CCOC(C)=O + CCCCCCO
viscosity [mPa·s], 101.33 kPa
Settings | x1 = 0.1142 | x1 = 0.2247 | x1 = 0.332 | x1 = 0.436 | x1 = 0.537 | x1 = 0.635 | x1 = 0.7301 | x1 = 0.8227 | x1 = 0.9125
298.15 K | 2.832 | 2.006 | 1.472 | 1.128 | 0.9 | 0.736 | 0.618 | 0.539 | 0.47
303.15 K | 2.481 | 1.775 | 1.334 | 1.027 | 0.824 | 0.692 | 0.574 | 0.506 | 0.448
308.15 K | 2.181 | 1.582 | 1.2 | 0.942 | 0.76 | 0.591 | 0.541 | 0.475 | 0.419

COc1ccc(C=O)cc1 + CCOCCO
viscosity [mPa·s], 101 kPa
Settings | x1 = 0.0825 | x1 = 0.1683 | x1 = 0.2576 | x1 = 0.3506 | x1 = 0.4474 | x1 = 0.5484 | x1 = 0.6539 | x1 = 0.7641 | x1 = 0.8793
303.15 K | 1.521 | 1.534 | 1.586 | 1.682 | 1.828 | 2.03 | 2.294 | 2.629 | 3.044
308.15 K | 1.459 | 1.483 | 1.535 | 1.618 | 1.735 | 1.891 | 2.09 | 2.338 | 2.641
313.15 K | 1.33 | 1.371 | 1.431 | 1.512 | 1.617 | 1.749 | 1.912 | 2.108 | 2.342
318.15 K | 1.251 | 1.294 | 1.351 | 1.423 | 1.513 | 1.623 | 1.755 | 1.911 | 2.096

COc1ccc(C=O)cc1 + Cc1ccccc1O
308.15 K, 101 kPa
Settings | viscosity [mPa·s]
x1 = 0.7753 | 3.815
x1 = 0.8859 | 3.475

CCCCCCCCCCCCBr + BrC(Br)C(Br)Br
101 kPa
Settings | viscosity [mPa·s]
298.08 K, x1 = 0.1586 | 7.196
298.08 K, x1 = 0.3004 | 5.936
298.08 K, x1 = 0.4493 | 5.091
298.08 K, x1 = 0.6166 | 4.392
298.08 K, x1 = 0.7772 | 3.877
303.1 K, x1 = 0.1376 | 6.506
303.1 K, x1 = 0.2855 | 5.399
303.1 K, x1 = 0.4255 | 4.58
303.1 K, x1 = 0.6541 | 3.787
303.1 K, x1 = 0.7773 | 3.437
308.11 K, x1 = 0.1363 | 5.669
308.11 K, x1 = 0.289 | 4.673
308.11 K, x1 = 0.4415 | 4.027
308.11 K, x1 = 0.6215 | 3.498
308.11 K, x1 = 0.7595 | 3.147
313.11 K, x1 = 0.1456 | 5.011
313.11 K, x1 = 0.2924 | 4.238
313.11 K, x1 = 0.4286 | 3.667
313.11 K, x1 = 0.634 | 3.093
313.11 K, x1 = 0.782 | 2.781

CC(=O)N(C(C)C)C(C)C + O
298.16 K, 101 kPa
Settings | viscosity [mPa·s]
x2 = 0.0812 | 2.4
x2 = 0.2041 | 2.83
x2 = 0.3933 | 3.61
x2 = 0.5827 | 4.68
x2 = 0.6893 | 5.21
x2 = 0.7296 | 5.3
x2 = 0.7747 | 5.26
x2 = 0.8218 | 4.96
x2 = 0.856 | 4.59

Source: the CheMixHub viscosity set
